Test results reported in patent US9545386B2, “Methods of treating infectious diseases” (SLIPPERY ROCK UNIVERSITY FOUNDATION, INC., priority 2007, dated 2017).

Experiments:
[1] = test system: Haemonchus contortus infective larvae; assay: In vitro bioassay of infective larvae, immobilization and lethal doses (eosin, Probit); type: cell-based; conditions: H. contortus infective larvae; for 48 hr ID90 ± 95% confidence intervals / 48 hr LD50 ± 95% confidence intervals / 48 hr LD90 ± 95% confidence intervals: 48 hr in vitro; for 24 hr LD50 ± 95% confidence intervals / 48 hr LD50 ± 95% confidence intervals: kill 50%; for 24 hr LD90 ± 95% confidence intervals / 48 hr LD90 ± 95% confidence intervals: kill 90%
Procedure: (§1) Strongyloides stercoralis infective larvae were harvested from charcoal coprocultures in nematode saline solution. The larvae were supplied by the Parasitology Laboratory, Department of Pathobiology, University of Pennsylvania. The strain of larvae was a human strain of the parasitic nematode that had been maintained for over ten years in canines by daily prednisolone treatment (2 mg/kg per os, once daily. Parastrongyloides trichosuri and Ancylostoma caninum infective larvae were also supplied by the same source as for S. stercoralis. Haemonchus contortus infective larvae were harvested from charcoal coprocultures in nematode saline solution prepared from infected sheep feces obtained from Merck Parasites Laboratory.
(§2) The 24 hr 50% and 90% immobilization doses (ID50 and ID90), and 50% and 90% lethal doses (LD50 and LD90) of eryngial (mg/ml) were investigated in vitro using infective larvae of all four parasitic nematodes. Each species was exposed to a range of eryngial dilutions by adding known volumes of a homogeneous ‘wormy’ solution (infective larvae in nematode saline solution) to known volumes of an eryngial stock suspension (10 mg/ml of nematode saline solution). Each dilution, including the control (0 mg/ml eryngial), was prepared in triplicate and also contained eosin (0.01%, w/v), which was used as an indicator of mortality, and Triton X-100 (1.0%, v/v).
(§3) Using S. stercoralis, P. trichosuri, H. contortus and A. caninum infective larvae, eryngial dilutions, excluding the controls, ranged from 0.05 to 1.15 mg/ml; 0.01 to 1.0 mg/ml; 0.5 to 2.0 mg/ml; and 0.8 to 3.0 mg/ml, respectively. Sub-sample (10 μl) counts of larvae that were mobile, immobile but not stained and stained, were done at the start of each bioassay and at 24 hr intervals for two days. Each sub-sample contained approximately 50 infective larvae.
(§4) The 48-hr immobilization doses (ID50 and ID90) and lethal doses (LD50 and LD90) of eryngial and ivermectin also were investigated, using S. stercoralis and H. contortus infective larvae. Each bioassay was conducted as described hereinabove. Using S. stercoralis and H. contortus infective larvae, ivermectin dilutions (not including the controls) ranged from 0.03 to 0.3 mg/ml and from 0.009 to 0.1 mg/ml, respectively.
(§5) Probit analysis was used to determine 24 hr and 48 hr immobilization and lethal doses for eryngial and ivermectin, respectively.

[2] = test system: Strongyloides stercoralis infective larvae; assay: as above; type: cell-based; conditions: for 24 hr ID50 ± 95% confidence intervals / 48 hr ID50 ± 95% confidence intervals: immobilize 50%; for 24 hr ID50 ± 95% confidence intervals / 24 hr ID90 ± 95% confidence intervals / 24 hr LD50 ± 95% confidence intervals / 24 hr LD90 ± 95% confidence intervals: 24 hr in vitro; for 48 hr ID50 ± 95% confidence intervals / 48 hr ID90 ± 95% confidence intervals / 48 hr LD50 ± 95% confidence intervals / 48 hr LD90 ± 95% confidence intervals: 48 hr in vitro; for 24 hr ID90 ± 95% confidence intervals / 48 hr ID90 ± 95% confidence intervals: immobilize 90%; for 24 hr LD50 ± 95% confidence intervals / 48 hr LD50 ± 95% confidence intervals: kill 50%; for 24 hr LD90 ± 95% confidence intervals / 48 hr LD90 ± 95% confidence intervals: kill 90%
Procedure: as §1, §2, §3, §4, §5

[3] = 24 hr in vitro, listed as eryngial
[4] = S. stercoralis infective larvae
[5] = S. stercoralis infective larvae, listed as eryngial
[6] = S. stercoralis, eryngial vs ivermectin

With `CCCCCCCCC/C=C/C=O` [Eryngial, trans-2-dodecenal] the “24 hr ID90 ± 95% confidence intervals” value ([1]; immobilize 90%, 24 hr in vitro, listed as eryngial) was 782 mg/L, the “48 hr ID90 ± 95% confidence intervals” value ([1]; immobilize 90%) was 0.761 (0.530-1.488) mg/ml and the “48 hr ID90 ± 95% confidence intervals” value ([1]; immobilize 90%, listed as eryngial) was 0.761 mg/mL. The “24 hr LD50 ± 95% confidence intervals” value ([1]; 24 hr in vitro) was 1.793 (1.516-2.558) mg/ml, the “24 hr LD50 ± 95% confidence intervals” value [1, 3] was 1.793 mg/mL and the “48 hr LD50 ± 95% confidence intervals” value [1] was 1.361 (1.284-1.449) mg/ml. The “48 hr LD50 ± 95% confidence intervals” value ([1]; listed as eryngial) was 1.361 mg/mL, the “24 hr LD90 ± 95% confidence intervals” value ([1]; 24 hr in vitro) was 2.765 (2.010-5.915) mg/ml and the “24 hr LD90 ± 95% confidence intervals” value [1, 3] was 2.765 mg/mL. For the same molecule, the “48 hr LD90 ± 95% confidence intervals” value [1] was 2.360 (2.109-2.768) mg/ml, the “48 hr LD90 ± 95% confidence intervals” value ([1]; listed as eryngial) was 2.360 mg/mL and the “decrease in the 50% immobilization dose” value ([2]; 24 hr ID50, S. stercoralis compared with A. caninum) was 9.4 fold. The “decrease in the 50% immobilization dose” value ([2]; 24 hr ID50, S. stercoralis compared with H. contortus) was 2.3 fold, the “less sensitive to eryngial than P. trichosuri” value ([2]; 24 hr ID50, S. stercoralis relative to P. trichosuri) was 4.5 fold and the “increased sensitivity to eryngial (90% immobilization)” value ([2]; 24 hr ID90, S. stercoralis over A. caninum) was 10.7 fold. The “increase in sensitivity to eryngial (50% mortality doses)” value ([2]; 24 hr LD50, S. stercoralis than A. caninum) was 7.2 fold, the “increase in sensitivity to eryngial (50% mortality doses)” value ([2]; 24 hr LD50, S. stercoralis than H. contortus) was 21.1 fold and the “increased sensitivity to eryngial (90% mortality doses)” value ([2]; 24 hr LD90, S. stercoralis over A. caninum) was 8.2 fold. The “increased sensitivity to eryngial (90% mortality doses)” value ([2]; 24 hr LD90, S. stercoralis over H. contortus) was 19.3, the “times more effective than ivermectin (48 hr ID90)” value ([2]; S. stercoralis L3 larvae, eryngial vs ivermectin) was 3.9 times and the “times more potent than ivermectin (48 hr ID50)” value ([2]; S. stercoralis infective larvae, eryngial vs ivermectin) was 2.5 times. For the same molecule, the “24 hr ID50 ± 95% confidence intervals” value [2, 4] was 0.058 (0.054-0.061) mg/ml, the “24 hr ID50 ± 95% confidence intervals” value [2, 5] was 0.058 mg/mL and the “48 hr ID50 ± 95% confidence intervals” value [2, 4] was 0.054 (0.047-0.061) mg/ml. For the same molecule, the “48 hr ID50 ± 95% confidence intervals” value [2, 5] was 0.054 mg/mL, the “24 hr ID90 ± 95% confidence intervals” value [2, 4] was 0.081 (0.076-0.088) mg/ml and the “24 hr ID90 ± 95% confidence intervals” value [2, 5] was 0.081 mg/mL. The “48 hr ID90 ± 95% confidence intervals” value [2, 4] was 0.077 (0.066-0.101) mg/ml, the “48 hr ID90 ± 95% confidence intervals” value [2, 5] was 0.077 mg/mL and the “24 hr LD50 ± 95% confidence intervals” value [2, 4] was 0.085 (0.073-0.102) mg/ml. The “24 hr LD50 ± 95% confidence intervals” value [2, 5] was 0.085 mg/mL, the “48 hr LD50 ± 95% confidence intervals” value [2, 4] was 0.069 (0.058-0.085) mg/ml and the “48 hr LD50 ± 95% confidence intervals” value [2, 5] was 0.069 mg/mL. The “24 hr LD90 ± 95% confidence intervals” value [2, 4] was 0.143 (0.115-0.245) mg/ml, the “24 hr LD90 ± 95% confidence intervals” value [2, 5] was 0.143 mg/mL and the “48 hr LD90 ± 95% confidence intervals” value [2, 4] was 0.105 (0.085-0.174) mg/ml. The “48 hr LD90 ± 95% confidence intervals” value [2, 5] was 0.105 mg/mL, the “times more effective than ivermectin (48 hr LD50)” value [2, 6] was 4.4 times and the “times more potent than ivermectin (48 hr LD90)” value [2, 6] was 9.9 times.
